Measured values published in patent US20090041719A1, “Method for screening therapeutic agent for glomerular disorder” (priority 2006, published 2009).
Where “and” joins values, the source holds several entries; their conditions need not be identical. Equal values may be shown once.

Assays:
[1] = test system: puromycin-induced acute nephrosis model; experiment: Puromycin-induced acute nephrosis model: urinary albumin excretion; assay type: in vivo, SD (Sprague-Dawley) rat
Description: It is known that a single intravenous dose of 50 mg/kg of puromycin to a 5-week-old SD (Sprague-Dawley) male rat damages the glomerular epithelial cells, causing severe proteinuria peaking from day 6 to day 14 and gradually decreasing thereafter, and again showing tubular proteinuria (see J. R. Diamond, and M. J. Karnovsky: Focal and segmental glomerulosclerosis following a single intravenous dose of puromycin aminonucleoside, Am. J. Pathol; 1986; 122; 481-487) (hereinafter, this model will be referred to as puromycin-induced acute nephrosis model). Using the above puromycin-induced acute nephrosis model as a model of glomerular lesions, the combinational effect of interferon γ and the composition for preventing, ameliorating, or treating glomerular lesions or disease of kidney was examined. To a 5-week-old SD (Sprague-Dawley) male rat, 30 mg/kg/day of said composition (6-2) was subcutaneously administered every day from five days before the administration of puromycin, and at the same time, 0.25 ml (2.3×10^4U) of rat recombinant interferon γ (by PeproTeck, final concentration: 9.09 μg/ml) was intraperitoneally administered on alternate days from five days before the administration of puromycin, followed by a single intravenous dose of 50 mg/kg of puromycin. Even after the administration of puromycin, the same amount of the composition (6-2) and the rat recombinant interferon γ were continuously administered every day and on alternate days respectively. On days 6, 12, and 19 after the administration of puromycin, 24-hour urine collection was performed to measure the amount of rat urinary albumin excretion by ELIZA method. At the same time, the urinary creatinine concentration was also measured by enzyme method. As indexes of glomerular epithelial damage, albumin excretion and the ratio of urinary albumin excretion to urinary creatinine were compared.

[2] = test system: glomerular lesions; renal tubulointerstitial lesions; settings: International Publication WO 2004/024185 and 01/72730 pamphlets; cited from earlier work
[3] = test system: FRP-1/CD98/4F2hc; experiment: FACScan of FRP-1/CD98/4F2hc expression on macrophage fraction of LPS-stimulated human PBMC (monoclonal antibodies 4-5-1, 6-1-3, HBJ-127); assay type: cell-based
[4] = test system: rBAT; experiment: rBAT on large-cell fraction of interferon γ-stimulated THP-1, peak value by FACScan; assay type: cell-based, human
Description: The same procedures as in Experimental Example 2 were taken except the following conditions: human leukemia culture cell line THP-1 was used instead of the human peripheral blood mononuclear cells; the final addition concentration of the test compound (6-2) was set to 100 nM; fetal bovine serum was used instead of the human AB serum; and human recombinant interferon γ (PHP050, Serotec) (final concentration: 100 ng/ml) was used instead of LPS. Also, using rabbit anti-human 4F2hc polyclonal antibodies (see Biol Pharm Bull 30: 415-422, 2007) as the primary antibody, the peak value of HAT expressed on the fraction of large-cells in human leukemia culture cell strain THP-1, compared with those not stimulated with LPS, was measured. As a control, the one with no test-compound (DMSO alone) was used, and the rabbit anti-human rBAT polyclonal antibodies were obtained in the same manner as in Experimental Example 2.

[5] = test system: 4F2hc; experiment: 4F2hc on large-cell fraction of LPS-stimulated THP-1, peak value by FACScan; assay type: cell-based, human
Description: The same procedures as in Experimental Example 2 were taken except the following conditions: human leukemia culture cell line THP-1 was used instead of the human peripheral blood mononuclear cells; the final addition concentration of the test compound (6-2) was set to 100 nM, and the final addition concentration of the test compound (7-3) was set to 1000 nM; and fetal bovine serum was used instead of the human AB serum. The peak value of HAT expressed on the fraction of large-cells in human leukemia culture cell strain THP-1, compared with those not stimulated with LPS, was measured. As a control, the one with no test-compound addition was used, and the peak value of HAT was measured by FACScan using a commercially available cell fix/cell membrane infiltration kit (trade name: BD Cytofix/Cytopem™ Kit, catalog No. 554714, BD Bioscience).

[6] = human PBMC + LPS 80 μg/ml, 6-day culture, test compound 10 nM

Structure (SMILES): O=C1CCC(F)(C(=O)OCc2ccccc2)O1 (stereo not shown) [Compound (6-2)]
- Albumin Excretion, Day 6 ([1]; group average): 98.3 mg/day
- Albumin Excretion, Day 12 ([1]; group average): 182.6 mg/day
- Albumin Excretion, Day 19 ([1]; group average): 101.0 mg/day
- Urinary Albumin Excretion/Urinary Creatinine, Day 6 ([1]; group average): 16.7 1/Cr
- Urinary Albumin Excretion/Urinary Creatinine, Day 12 ([1]; group average): 29.1 1/Cr
- Urinary Albumin Excretion/Urinary Creatinine, Day 19 ([1]; group average): 15.8 1/Cr
- Urinary Albumin Excretion/Urinary Creatinine, Day 6 ([1]; individual animal): 12.1 1/Cr and 21.2 1/Cr
- Urinary Albumin Excretion/Urinary Creatinine, Day 12 ([1]; individual animal): 22.3 1/Cr and 35.8 1/Cr
- Urinary Albumin Excretion/Urinary Creatinine, Day 19 ([1]; individual animal): 11.0 1/Cr and 20.5 1/Cr
- Albumin Excretion, Day 6 ([1]; individual animal, 24-hour urine, day 6 after puromycin, compound 30 mg/kg/day s.c., 30 mg/kg/day): 80.7 mg/day and 115.9 mg/day
- Albumin Excretion, Day 12 ([1]; individual animal, 24-hour urine, day 12 after puromycin, compound 30 mg/kg/day s.c., 30 mg/kg/day): 136.0 mg/day and 229.1 mg/day
- Albumin Excretion, Day 19 ([1]; individual animal, 24-hour urine, day 19 after puromycin, compound 30 mg/kg/day s.c., 30 mg/kg/day): 73.4 mg/day and 128.6 mg/day
- known action on glomerular lesions [2]: selectively inhibit the glomerular lesions
- expression of the FRP-1/CD98/4F2hc molecule lowered to ([3]; a different normal human PBMC, where expression was enhanced to 90% or more, not shown in Table): ≤ 5%
- Migration of FRP-1/CD98/4F2hc expression of macrophage fraction by FACScan (migration rate %), monoclonal antibody 4-5-1 (FRP-1) [3, 6]: 32.7%
- Migration of FRP-1/CD98/4F2hc expression of macrophage fraction by FACScan (migration rate %), monoclonal antibody 6-1-3 (FRP-1) [3, 6]: 29.8%
- Migration of FRP-1/CD98/4F2hc expression of macrophage fraction by FACScan (migration rate %), monoclonal antibody HBJ-127 (CD98) [3, 6]: 11.0%
- expression of FRP-1/CD98/4F2hc on macrophage fraction of human PBMC (in words) ([3]; stimulated and cultured with LPS, summary of Table 1): increased the expression
- Change in HAT expressed on large-cell fraction of THP-1 (peak value by FACScan), rBAT ([4]; THP-1 + human recombinant interferon γ 100 ng/ml, test compound 100 nM, solvent control 55): 50
- amount of rBAT (in words) ([4]; THP-1 + interferon γ, summary of Table 4): without any influence
- Change in HAT expressed on large-cell fraction of THP-1 (peak value by FACScan), 4F2hc ([5]; THP-1 + LPS 80 μg/ml, fetal bovine serum, test compound 100 nM, solvent control 12): 25
- amount of 4F2hc in the heavy chain of HAT (in words) ([5]; THP-1 + LPS, summary of Table 3): remarkably changed
